Drawing on ChEMBL document CHEMBL5291721, “A preclinical secondary pharmacology resource illuminates target-adverse drug reaction associations of marketed drugs” (Nat Commun, 2023), this text covers AC50 for 9 compounds.

A value given as a limit tells only on which side of the number the result lay.

Among the targets are Adenosine receptor A2a (Homo sapiens, UniProt P29274); Histamine H3 receptor (Homo sapiens, UniProt Q9Y5N1); Vasopressin V1a receptor (Homo sapiens, UniProt P37288); Vasopressin V2 receptor (Homo sapiens, UniProt P30518); Histamine H1 receptor (Homo sapiens, UniProt P35367).
For assay [1], the target named is Gamma-aminobutyric acid receptor subunit alpha-1 (Rattus norvegicus, UniProt P62813). The format is functional.
Sequence of Gamma-aminobutyric acid receptor subunit alpha-1 (P62813 whole entry): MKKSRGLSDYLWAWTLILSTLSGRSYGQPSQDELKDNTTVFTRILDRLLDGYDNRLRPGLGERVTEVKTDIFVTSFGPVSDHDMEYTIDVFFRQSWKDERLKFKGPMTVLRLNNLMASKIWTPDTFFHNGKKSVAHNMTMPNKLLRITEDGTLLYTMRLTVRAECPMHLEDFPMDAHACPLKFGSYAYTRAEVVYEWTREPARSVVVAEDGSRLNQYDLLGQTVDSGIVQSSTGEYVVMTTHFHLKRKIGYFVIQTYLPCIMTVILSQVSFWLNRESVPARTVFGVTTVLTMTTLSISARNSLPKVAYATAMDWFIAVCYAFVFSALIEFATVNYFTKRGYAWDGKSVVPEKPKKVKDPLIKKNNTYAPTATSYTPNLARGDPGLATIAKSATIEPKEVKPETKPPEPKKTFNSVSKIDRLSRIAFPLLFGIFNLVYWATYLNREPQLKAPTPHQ
The target in a further assay is Mu-type opioid receptor (Homo sapiens, UniProt P35372). The experiment in a line: biochemical. It is filed as functional.
The target of assay [2] is T1, Muscarinic acetylcholine receptor M2 (Homo sapiens, UniProt P08172).
T1 sequence (P08172 whole entry): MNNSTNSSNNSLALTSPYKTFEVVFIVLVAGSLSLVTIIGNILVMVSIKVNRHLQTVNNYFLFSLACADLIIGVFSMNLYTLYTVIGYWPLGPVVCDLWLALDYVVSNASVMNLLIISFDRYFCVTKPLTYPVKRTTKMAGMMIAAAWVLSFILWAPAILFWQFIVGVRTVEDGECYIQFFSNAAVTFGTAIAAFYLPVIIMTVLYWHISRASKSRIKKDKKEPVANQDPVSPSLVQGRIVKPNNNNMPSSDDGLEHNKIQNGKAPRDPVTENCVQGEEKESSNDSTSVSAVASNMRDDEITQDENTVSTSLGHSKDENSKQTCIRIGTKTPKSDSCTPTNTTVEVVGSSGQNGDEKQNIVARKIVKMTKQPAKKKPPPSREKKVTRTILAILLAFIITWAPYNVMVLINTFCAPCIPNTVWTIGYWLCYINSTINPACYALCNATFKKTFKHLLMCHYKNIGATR
It is filed as functional, cell-based.

The target of assay [3] is Glutamate receptor ionotropic, NMDA 1 (Rattus norvegicus, UniProt P35439).
For assay [4], the target named is Growth hormone secretagogue receptor type 1 (Homo sapiens, UniProt Q92847).
Sequence of Growth hormone secretagogue receptor type 1 (Q92847 whole entry): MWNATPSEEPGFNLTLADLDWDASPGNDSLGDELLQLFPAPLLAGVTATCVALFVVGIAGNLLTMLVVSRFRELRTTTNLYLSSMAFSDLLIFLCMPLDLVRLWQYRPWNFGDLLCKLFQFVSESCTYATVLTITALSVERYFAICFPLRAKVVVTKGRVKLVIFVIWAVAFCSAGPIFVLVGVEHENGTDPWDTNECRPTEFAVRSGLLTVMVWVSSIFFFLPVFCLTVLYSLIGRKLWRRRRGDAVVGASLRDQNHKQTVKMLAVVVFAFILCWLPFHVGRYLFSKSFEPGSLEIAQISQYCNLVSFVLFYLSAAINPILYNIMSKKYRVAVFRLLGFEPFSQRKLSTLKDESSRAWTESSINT
In assay [5] the target is 3',5'-cyclic-AMP phosphodiesterase 4D (Homo sapiens, UniProt Q08499). The format is functional.
The target of assay [6] is 5-hydroxytryptamine receptor 2A (Homo sapiens, UniProt P28223). The format is functional, cell-based.
The target of assay [7] is Voltage-dependent L-type calcium channel subunit alpha-1C (Rattus norvegicus, UniProt P22002). The format is functional.
Sequence of Voltage-dependent L-type calcium channel subunit alpha-1C (P22002 whole entry): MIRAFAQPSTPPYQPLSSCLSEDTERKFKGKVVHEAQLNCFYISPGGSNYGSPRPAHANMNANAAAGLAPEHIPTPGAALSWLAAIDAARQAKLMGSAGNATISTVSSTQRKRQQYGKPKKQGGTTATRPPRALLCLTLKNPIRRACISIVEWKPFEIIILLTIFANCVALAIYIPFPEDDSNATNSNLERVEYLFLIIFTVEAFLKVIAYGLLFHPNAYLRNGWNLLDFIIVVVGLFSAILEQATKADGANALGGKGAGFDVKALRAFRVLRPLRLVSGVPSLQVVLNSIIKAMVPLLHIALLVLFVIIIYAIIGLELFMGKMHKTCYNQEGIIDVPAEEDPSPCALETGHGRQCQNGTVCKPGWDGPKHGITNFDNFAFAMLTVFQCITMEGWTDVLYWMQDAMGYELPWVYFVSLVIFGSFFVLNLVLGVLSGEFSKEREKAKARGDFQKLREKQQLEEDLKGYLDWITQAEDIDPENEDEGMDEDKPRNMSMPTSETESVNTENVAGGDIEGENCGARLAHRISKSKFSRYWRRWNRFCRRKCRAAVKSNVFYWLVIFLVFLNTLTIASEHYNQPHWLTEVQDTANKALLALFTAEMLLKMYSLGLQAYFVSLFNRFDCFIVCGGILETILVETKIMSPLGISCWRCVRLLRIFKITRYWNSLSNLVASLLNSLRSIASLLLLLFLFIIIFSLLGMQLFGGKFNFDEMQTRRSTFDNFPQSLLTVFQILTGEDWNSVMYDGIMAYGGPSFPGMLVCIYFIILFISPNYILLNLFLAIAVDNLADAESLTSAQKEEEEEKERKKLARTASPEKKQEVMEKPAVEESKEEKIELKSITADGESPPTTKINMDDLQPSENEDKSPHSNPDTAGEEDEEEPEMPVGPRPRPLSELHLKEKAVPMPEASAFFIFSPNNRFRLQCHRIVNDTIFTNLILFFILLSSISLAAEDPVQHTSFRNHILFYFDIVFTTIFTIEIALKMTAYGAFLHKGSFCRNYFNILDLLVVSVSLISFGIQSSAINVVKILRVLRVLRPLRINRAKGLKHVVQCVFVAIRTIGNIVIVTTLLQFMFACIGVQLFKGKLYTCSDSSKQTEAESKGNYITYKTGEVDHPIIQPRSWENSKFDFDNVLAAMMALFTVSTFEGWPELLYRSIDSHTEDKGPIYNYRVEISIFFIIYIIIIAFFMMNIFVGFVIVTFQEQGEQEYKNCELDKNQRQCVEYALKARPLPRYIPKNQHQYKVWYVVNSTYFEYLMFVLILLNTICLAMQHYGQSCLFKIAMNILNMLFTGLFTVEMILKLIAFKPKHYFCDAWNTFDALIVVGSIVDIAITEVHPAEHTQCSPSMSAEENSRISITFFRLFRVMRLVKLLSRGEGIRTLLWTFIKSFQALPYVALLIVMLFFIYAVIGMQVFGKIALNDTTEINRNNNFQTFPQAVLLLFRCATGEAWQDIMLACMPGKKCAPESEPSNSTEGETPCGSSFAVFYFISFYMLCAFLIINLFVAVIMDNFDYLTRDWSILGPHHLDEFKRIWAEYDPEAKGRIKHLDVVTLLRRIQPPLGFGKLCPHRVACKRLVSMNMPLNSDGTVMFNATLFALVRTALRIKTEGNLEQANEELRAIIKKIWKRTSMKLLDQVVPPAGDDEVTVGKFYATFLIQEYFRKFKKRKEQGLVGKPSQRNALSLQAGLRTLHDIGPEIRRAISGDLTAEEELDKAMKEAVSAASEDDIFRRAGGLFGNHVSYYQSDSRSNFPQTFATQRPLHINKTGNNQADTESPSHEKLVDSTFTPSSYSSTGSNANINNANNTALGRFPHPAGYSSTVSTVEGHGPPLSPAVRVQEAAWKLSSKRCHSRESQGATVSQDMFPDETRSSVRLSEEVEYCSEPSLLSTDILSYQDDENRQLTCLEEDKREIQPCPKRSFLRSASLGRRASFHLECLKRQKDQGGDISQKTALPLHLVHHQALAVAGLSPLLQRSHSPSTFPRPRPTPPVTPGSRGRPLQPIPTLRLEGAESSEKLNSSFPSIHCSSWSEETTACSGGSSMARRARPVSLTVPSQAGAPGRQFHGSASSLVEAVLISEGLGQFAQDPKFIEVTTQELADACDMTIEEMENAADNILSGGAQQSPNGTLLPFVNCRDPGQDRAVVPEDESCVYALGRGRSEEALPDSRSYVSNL
In assay [8] the target is cGMP-inhibited 3',5'-cyclic phosphodiesterase 3A (Homo sapiens, UniProt Q14432). The format is functional.
A further assay deals with Cannabinoid receptor 1 (Homo sapiens, UniProt P21554). It is filed as functional, cell-based.
Sequence of Cannabinoid receptor 1 (P21554 whole entry): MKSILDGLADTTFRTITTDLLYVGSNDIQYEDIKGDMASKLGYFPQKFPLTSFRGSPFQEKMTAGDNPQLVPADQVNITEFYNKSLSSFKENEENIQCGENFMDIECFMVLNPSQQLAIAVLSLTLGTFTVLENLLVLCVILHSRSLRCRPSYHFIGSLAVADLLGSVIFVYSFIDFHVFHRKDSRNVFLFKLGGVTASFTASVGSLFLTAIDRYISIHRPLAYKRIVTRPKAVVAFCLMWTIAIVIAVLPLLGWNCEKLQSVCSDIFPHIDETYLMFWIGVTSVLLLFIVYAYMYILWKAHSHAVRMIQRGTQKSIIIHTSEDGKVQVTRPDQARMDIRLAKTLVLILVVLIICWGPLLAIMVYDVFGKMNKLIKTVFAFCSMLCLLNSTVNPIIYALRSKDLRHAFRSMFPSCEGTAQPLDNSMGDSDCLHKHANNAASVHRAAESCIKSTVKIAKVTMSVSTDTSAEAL
The target in assay [9] is T2, Muscarinic acetylcholine receptor M1 (Homo sapiens, UniProt P11229).
T2 sequence (P11229 whole entry): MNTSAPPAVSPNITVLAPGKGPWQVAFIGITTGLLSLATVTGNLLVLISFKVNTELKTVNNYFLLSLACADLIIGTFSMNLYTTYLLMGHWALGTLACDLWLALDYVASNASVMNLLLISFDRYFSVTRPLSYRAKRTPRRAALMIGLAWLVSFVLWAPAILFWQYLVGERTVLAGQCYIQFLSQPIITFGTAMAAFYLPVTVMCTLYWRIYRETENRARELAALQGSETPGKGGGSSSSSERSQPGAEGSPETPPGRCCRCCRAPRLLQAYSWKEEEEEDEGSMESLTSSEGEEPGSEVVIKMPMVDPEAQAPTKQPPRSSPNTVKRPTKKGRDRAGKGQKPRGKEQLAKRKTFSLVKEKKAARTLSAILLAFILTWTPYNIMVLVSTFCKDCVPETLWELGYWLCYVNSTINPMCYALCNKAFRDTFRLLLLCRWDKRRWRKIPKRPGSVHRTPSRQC
The format is functional.

The target in assay [10] is Beta-1 adrenergic receptor (Homo sapiens, UniProt P08588). The format is functional.
Assay [11] addresses T1, Muscarinic acetylcholine receptor M2. It is filed as functional, cell-based. This is another data set of the same source.
The next assay addresses Histamine H2 receptor (Homo sapiens, UniProt P25021). The format is functional, cell-based.
The target in assay [12] is T3, 5-hydroxytryptamine receptor 1A (Homo sapiens, UniProt P08908).
T3 sequence (P08908 whole entry): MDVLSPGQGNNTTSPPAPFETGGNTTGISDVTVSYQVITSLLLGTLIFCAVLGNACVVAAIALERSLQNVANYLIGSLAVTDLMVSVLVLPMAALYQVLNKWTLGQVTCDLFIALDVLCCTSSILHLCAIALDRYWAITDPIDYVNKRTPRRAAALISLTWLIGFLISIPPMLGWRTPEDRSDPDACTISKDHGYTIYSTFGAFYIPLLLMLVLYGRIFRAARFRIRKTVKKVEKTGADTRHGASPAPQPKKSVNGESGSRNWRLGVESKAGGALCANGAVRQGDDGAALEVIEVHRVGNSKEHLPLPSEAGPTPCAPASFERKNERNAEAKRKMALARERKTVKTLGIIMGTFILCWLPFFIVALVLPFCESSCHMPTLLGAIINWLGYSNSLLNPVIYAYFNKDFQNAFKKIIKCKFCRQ
The format is functional, cell-based.
Also: assay procedure not described here.

Sequence of Histamine H3 receptor (Q9Y5N1 whole entry): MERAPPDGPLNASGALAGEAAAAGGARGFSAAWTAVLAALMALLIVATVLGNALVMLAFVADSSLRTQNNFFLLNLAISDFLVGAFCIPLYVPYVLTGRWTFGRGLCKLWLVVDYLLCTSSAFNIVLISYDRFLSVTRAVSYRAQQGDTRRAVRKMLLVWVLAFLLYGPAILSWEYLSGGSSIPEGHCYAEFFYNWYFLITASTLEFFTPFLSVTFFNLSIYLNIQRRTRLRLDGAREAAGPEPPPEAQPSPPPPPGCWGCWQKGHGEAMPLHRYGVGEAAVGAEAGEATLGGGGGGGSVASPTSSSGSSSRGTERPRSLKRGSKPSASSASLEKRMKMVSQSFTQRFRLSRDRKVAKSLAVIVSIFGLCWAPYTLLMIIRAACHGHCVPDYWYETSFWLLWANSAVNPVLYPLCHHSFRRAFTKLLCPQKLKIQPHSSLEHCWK
Sequence of Histamine H2 receptor (P25021 whole entry): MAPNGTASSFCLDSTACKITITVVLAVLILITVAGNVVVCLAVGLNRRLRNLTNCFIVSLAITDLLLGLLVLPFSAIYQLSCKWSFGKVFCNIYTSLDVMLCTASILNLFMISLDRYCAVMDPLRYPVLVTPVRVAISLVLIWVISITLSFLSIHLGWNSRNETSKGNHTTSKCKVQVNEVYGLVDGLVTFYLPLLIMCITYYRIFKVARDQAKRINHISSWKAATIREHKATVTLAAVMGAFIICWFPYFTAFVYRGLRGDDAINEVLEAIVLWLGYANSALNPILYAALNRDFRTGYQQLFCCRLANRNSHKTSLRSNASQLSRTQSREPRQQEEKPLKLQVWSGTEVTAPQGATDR
Sequence of Adenosine receptor A2a (P29274 whole entry): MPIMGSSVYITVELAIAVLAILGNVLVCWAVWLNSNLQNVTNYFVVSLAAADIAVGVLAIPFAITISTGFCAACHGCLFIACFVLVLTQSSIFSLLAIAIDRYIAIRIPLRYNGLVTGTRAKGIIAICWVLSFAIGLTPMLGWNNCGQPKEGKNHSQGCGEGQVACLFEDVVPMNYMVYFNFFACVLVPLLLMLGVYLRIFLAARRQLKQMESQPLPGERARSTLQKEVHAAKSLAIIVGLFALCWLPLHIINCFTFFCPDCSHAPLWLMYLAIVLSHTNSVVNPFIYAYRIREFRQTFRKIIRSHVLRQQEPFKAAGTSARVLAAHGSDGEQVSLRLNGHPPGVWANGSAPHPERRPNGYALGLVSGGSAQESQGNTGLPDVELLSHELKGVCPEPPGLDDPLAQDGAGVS
Sequence of Vasopressin V2 receptor (P30518 whole entry): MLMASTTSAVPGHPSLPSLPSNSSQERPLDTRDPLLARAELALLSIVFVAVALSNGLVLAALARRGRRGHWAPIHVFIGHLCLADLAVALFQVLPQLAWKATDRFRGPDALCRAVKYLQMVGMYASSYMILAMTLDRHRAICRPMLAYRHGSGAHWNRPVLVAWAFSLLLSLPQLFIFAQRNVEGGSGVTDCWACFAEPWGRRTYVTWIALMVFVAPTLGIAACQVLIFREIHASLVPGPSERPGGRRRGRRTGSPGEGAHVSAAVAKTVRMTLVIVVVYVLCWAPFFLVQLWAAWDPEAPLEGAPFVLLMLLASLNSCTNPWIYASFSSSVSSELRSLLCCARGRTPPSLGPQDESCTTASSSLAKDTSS

For the compound `Oc1cc(O)c(Cl)cn1`, the AC50 (in [1]; on Adenosine receptor A2a; at Mu-type opioid receptor; in assay [2]; in assay [3]; in [4]) was greater than 30 µM each time. For the same compound, the AC50 (in assay [5]; in assay [6]; on Histamine H3 receptor; in assay [7]; in assay [8]; at Cannabinoid receptor 1) was greater than 30 µM in each case. Also, the AC50 (in [9]; in assay [10]; on Vasopressin V1a receptor; on Vasopressin V2 receptor; at Histamine H1 receptor; in assay [11]) was greater than 30 µM each time. Besides, on Histamine H2 receptor, the AC50 (in general, the midpoint of the concentration-response curve, whichever way the signal moves) was greater than 30 µM.

On to `C[N+]12CCC(CC1)C(OC(=O)C(O)(c1ccccc1)c1ccccc1)C2` (stereo unspecified), for which the AC50 (in [1]; at Adenosine receptor A2a; on Mu-type opioid receptor; in [3]; in [4]; in assay [5]) was greater than 30 µM throughout. The AC50 in assay [6] was greater than 30 µM; on Histamine H3 receptor, greater than 30 µM; in assay [8], greater than 30 µM; on Cannabinoid receptor 1, greater than 30 µM; in assay [9] it was 0.0031 µM; in assay [10] it was greater than 30 µM. Besides, the AC50 (on Vasopressin V1a receptor; on Vasopressin V2 receptor; on Histamine H1 receptor; in [11]; on Histamine H2 receptor) was greater than 30 µM throughout.

Turning to `CO/N=C(\C(=O)N[C@@H]1C(=O)N2C(C(=O)O)=CCS[C@H]12)c1csc(N)n1` [CEFTIZOXIME], the concentration at half-maximal activity (AC50) (at Adenosine receptor A2a; on Mu-type opioid receptor; in assay [2]; in assay [4]; in assay [5]; in assay [6]) was greater than 30 µM throughout. Further, the AC50 (on Histamine H3 receptor; in [8]; at Cannabinoid receptor 1; in assay [9]; in assay [10]; at Vasopressin V1a receptor) was greater than 30 µM throughout. Further, the AC50 (at Vasopressin V2 receptor; at Histamine H1 receptor; in [11]; on Histamine H2 receptor) was greater than 30 µM each time.

As to `CCc1cc2c(s1)-n1c(C)nnc1CN=C2c1ccccc1Cl` [ETIZOLAM], the AC50 was 0.0091 µM in assay [1]; greater than 30 µM at Adenosine receptor A2a; greater than 30 µM on Mu-type opioid receptor; greater than 30 µM in assay [2]; greater than 30 µM in assay [3]; greater than 30 µM in assay [4]. Moreover, the AC50 in assay [5] is 19 µM; in assay [6], greater than 30 µM; at Histamine H3 receptor it was greater than 30 µM; in assay [7] it was greater than 30 µM; in assay [8], greater than 30 µM; at Cannabinoid receptor 1, greater than 30 µM. In addition, the AC50 (in [9]; in assay [10]; at Vasopressin V1a receptor; on Vasopressin V2 receptor; at Histamine H1 receptor; in assay [11]) was greater than 30 µM in each case. Besides, the AC50 at Histamine H2 receptor was greater than 30 µM.

For `O=C(NCCO[N+](=O)[O-])c1cccnc1` [NICORANDIL], the AC50 (in [1]; at Adenosine receptor A2a; on Mu-type opioid receptor; in assay [2]; in assay [3]; in [4]) was greater than 30 µM throughout. Moreover, the AC50 (in assay [5]; in assay [6]; on Histamine H3 receptor; in assay [8]; on Cannabinoid receptor 1; in assay [9]) was greater than 30 µM throughout. Further, the AC50 (in assay [10]; on Vasopressin V1a receptor; at Vasopressin V2 receptor; at Histamine H1 receptor; in assay [11]; on Histamine H2 receptor) was greater than 30 µM in each case.

Turning to `CO[C@H]1C[C@H](O[C@H]2CC[C@@]3(C)[C@H](CC[C@@H]4[C@@H]3CC[C@]3(C)[C@@H](C5=CC(=O)OC5)[C@@H](OC(C)=O)C[C@]43O)C2)O[C@@H](C)[C@@H]1O` [OLEANDRIN], the concentration at half-maximal activity (AC50) in assay [1], in assay [2], in assay [12], in assay [3], in assay [5] and in [6] was greater than 30 µM throughout. Also, the AC50 (in assay [8]; at Cannabinoid receptor 1; in [9]; on Histamine H1 receptor; in [11]; at Histamine H2 receptor) was greater than 30 µM each time.

Take `OC[C@H]1O[C@@H](Oc2cc(O)cc(/C=C/c3ccc(O)cc3)c2)[C@H](O)[C@@H](O)[C@@H]1O` [PICEID]: the AC50 (in assay [1]; at Adenosine receptor A2a; on Mu-type opioid receptor; in [2]; in assay [3]; in [4]) was greater than 30 µM each time. In addition, the AC50 (in assay [5]; in assay [6]; at Histamine H3 receptor; in [7]; in assay [8]; on Cannabinoid receptor 1) was greater than 30 µM in each case. Besides, the AC50 (in assay [9]; in assay [10]; on Vasopressin V1a receptor; at Vasopressin V2 receptor; on Histamine H1 receptor; in assay [11]) was greater than 30 µM throughout. This compound also had an AC50 at Histamine H2 receptor greater than 30 µM.

In the case of `CC(C)(C)NCC(O)c1ccccc1Cl` (stereo unspecified) [TULOBUTEROL], the AC50 (in [1]; at Adenosine receptor A2a; at Mu-type opioid receptor; in [2]; in [12]; in assay [3]) was greater than 30 µM throughout. Moreover, the AC50 (in assay [4]; in assay [5]; in assay [6]; on Histamine H3 receptor; in assay [7]; in assay [8]) was greater than 30 µM in each case. The AC50 (on Cannabinoid receptor 1; in assay [9]; at Vasopressin V1a receptor; at Vasopressin V2 receptor; in [11]; at Histamine H2 receptor) was greater than 30 µM each time.

As for `CC(C(=O)O)c1ccc2c(c1)CC(=O)c1ccccc1S2` (stereo unspecified) [ZALTOPROFEN], the AC50 (in assay [1]; at Adenosine receptor A2a; at Mu-type opioid receptor; in assay [2]; in assay [3]; in assay [4]) was greater than 30 µM throughout. The AC50 is 24 µM in assay [5]; greater than 30 µM in [6]; greater than 30 µM at Histamine H3 receptor; greater than 30 µM in assay [7]; greater than 30 µM in assay [8]; greater than 30 µM on Cannabinoid receptor 1. For the same compound, the AC50 (in assay [9]; on Vasopressin V1a receptor; at Vasopressin V2 receptor; on Histamine H1 receptor; in [11]; at Histamine H2 receptor) was greater than 30 µM throughout.
